# Reference: US20140037798A1, “LIQUID NUTRITIONAL PRODUCTS COMPRISING METAL AMINO ACID CHELATES” (ABBOTT LABORATORIES, priority 2011, published 2014)
# Experiments:
# [1] = Methionine sulfoxide concentration in nutritional emulsion, marker of reactive oxygen species generation; format: physicochemical; details: copper ingredient 35 μM, retort sterilized
# [2] = Vitamin B12 recovery in retort sterilized chocolate flavored nutritional emulsion (validated HPLC); details: copper ingredient 35 μM
# Description: Once prepared, the emulsions are analyzed for vitamin B12 recovery using a fully validated HPLC method to determine the amount of vitamin B12 remaining (i.e., not lost to oxidative destruction) in the nutritional emulsion.
# [3] = cocoa powder 0.80% (w/w), pH 6.8 HEPES, cocoa powder:iron 40:1, 99° C. thirty minutes, 0.45 μm filtrate
# Description: The visible absorbance of liquids including a mixture of cocoa powder and an iron-containing component is measured to determine the ability of various ferric salts, including ferric amino acid chelates, to decrease reactivity between the iron and the cocoa powder.
# Various samples are prepared as described herein using various iron-containing components. All mixtures contain cocoa powder at 0.80% (w/w) in pH 6.8 buffer (0.10M HEPES). The control liquid is prepared without any iron-containing component. In the remaining samples, the iron components are added so that the weight ratio of cocoa powder:iron is 40:1 (w/w).
Compound,"Methionine sulfoxide, as mole % of total methionine [1]",Vitamin B12 [2],"Absorbance, Filtrate v. Blank, 535 nm [3]","Absorbance, Filtrate v. Blank, 600 nm [3]","Absorbance, Filtrate v. Blank, 700 nm [3]"
copper lysine chelate,17.4%,47.0 µg/kg,–,–,–
"O.O.O.O.O.O=S(=O)([O-])[O-].[Cu+2] [Control (CuSO4), copper sulfate pentahydrate, reference compound]",18.8%,38.5 µg/kg,–,–,–
copper gluconate,17.9%,46.4 µg/kg,–,–,–
Ferrous sulfate [reference compound],–,–,1240 mAU,1150 mAU,688 mAU
Ferrous gluconate,–,–,1230 mAU,1100 mAU,607 mAU
"NCC(=O)[O-].NCC(=O)[O-].[Cu+2] [Copper bis-glycinate chelate, copper bis-glycinate chelate]",18.1%,41.3 µg/kg,–,–,–
Ferric bis-glycinate,–,–,610 mAU,319 mAU,101 mAU
"O=P([O-])([O-])[O-].[Fe+3] [Ferric orthophosphate, reference compound]",–,–,579 mAU,237 mAU,65 mAU
NCC(=O)[O-].NCC(=O)[O-].[Fe+2] [Ferrous bis-glycinate],–,–,1200 mAU,1040 mAU,567 mAU
